{
  "source": "patent US4656178A",
  "about": "(priority 1985, dated 1987)",
  "key": {"[1]": {"test": "6-month histological toxicity, dogs", "type": "in vivo", "details": "per os, 1 and 5 mg/kg, 6 months"}, "[2]": {"system": "potassium channels of the membrane of neurons", "test": "ion currents through the somatic membrane of mollusc neurons: potassium channels", "type": "cell-based, mollusca", "from_the_text": "(§1) The study of the effect produced by the preparation of the present invention on ion currents through the somatic membrane of neurons has shown that it selectively interacts with calcium and potassium channels of the membrane of neurons of mollusca, whereby the currents along these channels are suppressed."}, "[3]": {"test": "local anesthetic effect in intact rabbits", "type": "in vivo", "experimental": "The local anesthetic effect of the preparation was studied on 14 intact rabbits. […] The results of the experiments on determination of the ability of the preparation to cause infiltration anesthesia have shown that 10-15 minutes after intracutaneous administration, to rabbits, of 0.01-0.05% and 0.1% solutions of the preparation anesthesia occurs which is characterized by an increased threshold of a pain irritation; the duration of the effect is 20 to 48 hours. Under the same conditions of the experiment, the local anesthetic effect of a 0.5% solution of novocaine lasts for 90 minutes on the average."}, "[4]": {"test": "6-month histological toxicity, rats", "type": "in vivo", "details": "per os, 1 mg/kg, 6 months"}, "solubility": {"test": "solubility", "type": "physicochemical", "experimental": "The aerial portion and roots (tubers) of the plant Acontium leucostomum are disintegrated. The disintegrated air-dry raw material is wetted with a 3% solution of sodium carbonate and 1 hour thereafter is poured with chloroform. 12 hours afterwards the chloroform is drained and the plant is treated with a fresh portion of chloroform. There are thus obtained 8 extracts which are combined and evaporated under vacuum to a small volume. From the concentrated chloroform extract the alkaloids are recovered by means of a 2% sulphuric acid. The combined acid extracts are washed with chloroform, alkalinized by soda and extracted with chloroform. The chloroform extract is evaporated and the residue is treated with acetone to give a commercial product--lappaconitine which is recrystallized from methanol. Methanolic solution of lappaconitine and hydrobromic acid are mixed. […] M.p. is 216°-220° C., [α]D^24 =+27 (alcohol); C32 H44 O8 N2.HBr, molecular weight= 664.9."}, "[5]": {"test": "duration of antiarrhythmic effect compared with quinidine and novocainamide", "details": "in vivo", "experimental": "(§2) The duration of the antiarrhythmic action of the preparation was studied on rats intravenously administered with aconitine 1, 2, 4, 6, 24 and 48 hours after the preparation administration per os."}, "aconitine arrhythmia [6]": {"system": "aconitine arrhythmia", "test": "prevention of aconitine arrhythmia in rats and dogs", "type": "in vivo", "experimental": "(§3) The atrioventricular arrhythmia caused by aconitine is one of the most reliable models for forecasting the efficiency of the antiarrhythmic action of the novel preparation in clinics. The experiments were conducted on both narcotized and non-narcotized animals. The preparation was administered per os, intramuscularly, intraperitoneally and intravenously 5 to 15 minutes prior to or 3-5 minutes after the administration of aconitine.\nas §2"}, "lethal dose in rabbits": {"test": "lethal dose in rabbits", "type": "in vivo", "experimental": "The resorptive effect and toxicity of the preparation according to the present invention were studied on mice, rats, rabbits and dogs.\nIn doses of 5-6 mg/kg intravenously the preparation according to the present invention causes death of dogs and in doses of 3-4 mg/kg it is lethal for rabbits."}, "[7]": {"system": "central adreno- and cholinergic processes", "test": "central effects (sedative, adreno-, cholinergic, serotonin)", "details": "in vivo"}, "cardiac contractions": {"system": "cardiac contractions", "test": "strength of cardiac contractions in narcotized rats and guinea pigs", "type": "in vivo", "details": "intravenous, 0.1, 0.5, 1, 2 mg/kg", "experimental": "(§4) To find out a negative inotropic effect on the heart tissue, two series of experiments have been carried out:\n(2) the study of the preparation according to the present invention on the strength of cardiac contractions on narcotized (sodium ethaminal, 50-60 mg/kg intraperitoneally) rats and guinea pigs."}, "aconitine arrhythmia [8]": {"system": "aconitine arrhythmia", "type": "in vivo, rats", "experimental": "as §3\nThe antiarrhythmic activity of the pharmaceutical composition according to the present invention upon administration thereof against the background of a developing aconitine arrhythmia (therapeutic effect) was studied on 110 narcotized rats. The preparation was intravenously administered at intervals of 3-6 minutes against the background of the originated arrhythmia."}, "frog's heart": {"system": "frog's heart", "test": "amplitude of cardiac contractions of isolated frog's heart (Schtraube)", "details": "concentration of 10^-6 -5.10^-5 g/ml", "from_the_text": "as §4\n(1) the study of the effect of the preparation of this invention on the amplitude of the cardiac contractions of a frog's heart isolated according to Schtraube;"}, "aconitine arrhythmia [9]": {"system": "aconitine arrhythmia", "test": "animal or person", "type": "in vivo, rats", "experimental": "The assessment of the antiarrhythmic activity of the preparation was effected in acute and chronical experiments on rats, rabbits, cats and dogs. Various experimental models of arrhythmia were also used.\nas §3\nIn doses of 0.2-0.5 mg/kg the preparation of this invention prevents the appearance of aconitine arrhythmia in 100% of the rats. […] Under similar experimental conditions a preliminary administration of novocainamide in the dose of 60 mg/kg intravenously produced an antiarrhythmic effect in 50% of the animals."}, "[10]": {"system": "coronary blood circulation", "test": "volume rate of the coronary blood flow in cats", "type": "in vivo", "experimental": "The effect of the pharmaceutical composition according to the present invention on the coronary blood circulation was studied in acute experiments on cats by the method of recording of the volume rate of the coronary blood flow. […] The introduction of 1 mg/kg of the preparation results in an increased volume rate of the coronary blood flow by 30-80% during a long time."}, "[11]": {"system": "calcium channels of the membrane of neurons", "test": "ion currents through the somatic membrane of mollusc neurons: calcium channels", "type": "cell-based, mollusca", "from_the_text": "as §1"}},
  "note": "Structures can show the parent of a compound that is named as a salt. Where two headings read alike, the source gives them in different places.",
  "data": [
    {"smiles": "CCN1CC2(OC(=O)c3ccccc3NC(C)=O)CCC(OC)C34C1C(CC23)C1(O)CC(OC)C2CC4C1(O)C2OC", "note": "(stereo not drawn) [lappaconitine hydrobromide]", "values": [
      {"measurement": "destructive changes of inner organs and tissues", "setting": "[1]", "result": "no destructive changes on the part of inner organs and tissues"},
      {"measurement": "effect on currents along potassium channels", "setting": "[2]", "result": "suppressed"},
      {"measurement": "anesthetic activity relative to tetracaine hydrochloride", "setting": "[3]; 14 intact rabbits", "result": "matches tetracaine hydrochloride in its anesthetic activity"},
      {"measurement": "depth of anesthesia relative to tetracaine hydrochloride", "setting": "[3]; rabbit, in vivo", "result": "inferior to tetracaine hydrochloride"},
      {"measurement": "duration of anesthetic effect relative to tetracaine hydrochloride", "setting": "[3]; rabbit, in vivo", "result": "more than 6 times"},
      {"measurement": "destructive changes of inner organs and tissues", "setting": "[4]", "result": "no destructive changes on the part of inner organs and tissues"},
      {"measurement": "solubility", "setting": "solubility", "result": "soluble in water, alcohol, better in methanol"},
      {"measurement": "duration of effect relative to quinidine and novocainamide", "setting": "[5]", "result": 10, "unit": "times"},
      {"measurement": "duration of antiarrhythmic action", "setting": "aconitine arrhythmia [6]; aconitine model", "result": "up to 24 hours"},
      {"measurement": "animals in which development of aconitine arrhythmia is fully prevented", "setting": "aconitine arrhythmia [6]; intravenous, 0.2-0.3 mg/kg, narcotized rats and dogs", "result": 100, "unit": "%"},
      {"measurement": "animals in which development of aconitine arrhythmia is fully prevented", "setting": "aconitine arrhythmia [6]; peroral, 1-2 mg/kg, dogs and intact rats", "result": 100, "unit": "%"},
      {"measurement": "lethal dose", "setting": "lethal dose in rabbits", "result": "3 to 4", "unit": "mg/kg"},
      {"measurement": "central sedative effect", "setting": "[7]", "result": "weak central sedative effect"},
      {"measurement": "effect on central adreno- and cholinergic processes", "setting": "[7]", "result": "does not provide any substantial effect on central adreno- and cholinergic processes"},
      {"measurement": "serotonin-negative effect", "setting": "[7]", "result": "weak"},
      {"measurement": "influence on amplitude of cardiac contractions", "setting": "cardiac contractions", "result": "no influence on the amplitude of cardiac contractions"},
      {"measurement": "animals with complete restoration of normal sinus rhythm", "setting": "aconitine arrhythmia [8]; 0.1 mg/kg intravenously", "result": 50, "unit": "%"},
      {"measurement": "time to restoration of normal sinus rhythm", "setting": "aconitine arrhythmia [8]; 0.1 mg/kg, control arrhythmia lasts 120 minutes", "result": "30 to 35", "unit": "min"},
      {"measurement": "complete elimination of arrhythmia and restoration of correct sinus rhythm", "setting": "aconitine arrhythmia [8]; 0.3 to 0.5 mg/kg", "result": "complete elimination of arrhythmia and restoration of the correct sinus rhythm in all the animals"},
      {"measurement": "time to complete elimination of arrhythmia", "setting": "aconitine arrhythmia [8]; 0.3 to 0.5 mg/kg", "result": "1 to 2", "unit": "min"},
      {"measurement": "antiarrhythmic index (LD50/ED50)", "setting": "aconitine arrhythmia [8]; against background of developing aconitine arrhythmia", "result": 59},
      {"measurement": "negative inotropic effect, isolated heart", "setting": "frog's heart", "result": "does not provide a negative inotropic effect"},
      {"measurement": "minimal effective dose", "setting": "aconitine arrhythmia [9]; Rattus norvegicus, read-out: dose from which the antiarrhythmic effect is revealed", "result": 0.03, "unit": "mg/kg"},
      {"measurement": "animals in which appearance of aconitine arrhythmia is prevented", "setting": "aconitine arrhythmia [9]; doses of 0.2-0.5 mg/kg, rats", "result": 100, "unit": "%"},
      {"measurement": "antiarrhythmic index (LD50/ED50)", "setting": "aconitine arrhythmia [9]; prophylactic effect, aconitine arrhythmia", "result": 118.0},
      {"measurement": "animals with increased coronary blood flow", "setting": "[10]; 0.5 mg/kg", "result": 40, "unit": "%"},
      {"measurement": "increase of coronary blood flow", "setting": "[10]; 0.5 mg/kg, in 40% of the animals", "result": "15-30%"},
      {"measurement": "increase of volume rate of coronary blood flow", "setting": "[10]; 1 mg/kg, during a long time", "result": "30-80%"},
      {"measurement": "effect on coronary blood flow", "setting": "[10]; intravenous, 0.1 mg/kg", "result": "does not provide any effect"},
      {"measurement": "effect on currents along calcium channels", "setting": "[11]", "result": "suppressed"}
    ]}
  ]
}
